Reference: the supplement of paper PMC10307832

Key:
Assay in all cases: relative viability (nuclei count vs DMSO), 5 days (fraction); higher = more cells survive
[1] = tested on: A-427
Procedure, shortened: (§1)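 A single step with final 0.05% Triton X-100, 1% formaldehyde and 1 ug/ml Hoechst fixed the cells and stained nuclei 5 days after treatment. Lung cancer cell lines in 1536-well plates had been treated by pin tool the day after seeding with one drug alone or a fixed anchor-drug dose plus five library-drug doses (not always all listed) in √10 steps, and nuclei were counted on 4× images. Relative viability is the ratio of nuclei in treated wells to nuclei in vehicle wells, taken as the median of duplicate plates.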

[2] = tested on: CAL-12T
Procedure, shortened: as §1

[3] = tested on: COR-L 105
Procedure, shortened: as §1

[4] = tested on: EPLC-272H
Procedure, shortened: as §1

[5] = tested on: HCC-15
Procedure, shortened: as §1

[6] = tested on: LC-2-ad
Procedure, shortened: as §1

[7] = tested on: LCLC-97TM1
Procedure, shortened: as §1

[8] = tested on: NCI-H1395
Procedure, shortened: as §1

[9] = tested on: NCI-H1563
Procedure, shortened: as §1

[10] = tested on: NCI-H1734
Procedure, shortened: as §1

[11] = tested on: NCI-H1792
Procedure, shortened: as §1

[12] = tested on: NCI-H1915
Procedure, shortened: as §1

[13] = tested on: NCI-H1975
Procedure, shortened: as §1

[14] = tested on: NCI-H2023
Procedure, shortened: as §1

[15] = tested on: NCI-H2342
Procedure, shortened: as §1

[16] = tested on: NCI-H2347
Procedure, shortened: as §1

[17] = tested on: NCI-H2405
Procedure, shortened: as §1

[18] = tested on: NCI-H520
Procedure, shortened: as §1

[19] = tested on: NCI-H838
Procedure, shortened: as §1

[20] = tested on: SW 1573
Procedure, shortened: as §1

[21] = tested on: SW 900
Procedure, shortened: as §1

[22] = tested on: UMC-11
Procedure, shortened: as §1

`CCNC(=O)c1noc(-c2cc(C(C)C)c(O)cc2O)c1-c1ccc(CN2CCOCC2)cc1` [Luminespib] + Cc1nc(Nc2ncc(C(=O)Nc3c(C)cccc3Cl)s2)cc(N2CCN(CCO)CC2)n1 [Dasatinib] (partner 0.075 µM) gave a relative viability ([1]; first compound 0.002 µM) of 0.779, a relative viability ([1]; first compound 0.006325 µM) of 0.671 and a relative viability ([1]; first compound 0.02 µM) of 0.483. The relative viability ([1]; first compound 0.06325 µM) was 0.33, the relative viability ([1]; first compound 0.2 µM) was 0.128 and the relative viability ([2]; first compound 0.002 µM) was 0.519. The relative viability ([2]; first compound 0.006325 µM) was 0.485, the relative viability ([2]; first compound 0.02 µM) was 0.147 and the relative viability ([2]; first compound 0.06325 µM) was 0.0553. It also gave a relative viability ([2]; first compound 0.2 µM) of 0.0762, a relative viability ([3]; first compound 0.002 µM) of 0.344 and a relative viability ([3]; first compound 0.006325 µM) of 0.322. For the same compound, the relative viability ([3]; first compound 0.02 µM) was 0.248, the relative viability ([3]; first compound 0.06325 µM) was 0.157 and the relative viability ([3]; first compound 0.2 µM) was 0.145. The relative viability ([4]; first compound 0.002 µM) was 0.365, the relative viability ([4]; first compound 0.006325 µM) was 0.349 and the relative viability ([4]; first compound 0.06325 µM) was 0.35. The relative viability ([4]; first compound 0.2 µM) was 0.0778, the relative viability ([5]; first compound 0.002 µM) was 0.708 and the relative viability ([5]; first compound 0.006325 µM) was 0.603. It also gave a relative viability ([5]; first compound 0.02 µM) of 0.61, a relative viability ([5]; first compound 0.06325 µM) of 0.084 and a relative viability ([5]; first compound 0.2 µM) of 0.0846. The relative viability ([6]; first compound 0.002 µM) was 0.583, the relative viability ([6]; first compound 0.006325 µM) was 0.567 and the relative viability ([6]; first compound 0.02 µM) was 0.447. It also gave a relative viability ([6]; first compound 0.06325 µM) of 0.142, a relative viability ([6]; first compound 0.2 µM) of 0.16 and a relative viability ([7]; first compound 0.002 µM) of 0.884. For the same compound, the relative viability ([7]; first compound 0.006325 µM) was 0.721, the relative viability ([7]; first compound 0.02 µM) was 0.986 and the relative viability ([7]; first compound 0.06325 µM) was 0.726. The relative viability ([7]; first compound 0.2 µM) was 0.106, the relative viability ([8]; first compound 0.002 µM) was 0.418 and the relative viability ([8]; first compound 0.006325 µM) was 0.386. The relative viability ([8]; first compound 0.02 µM) was 0.366, the relative viability ([8]; first compound 0.06325 µM) was 0.33 and the relative viability ([8]; first compound 0.2 µM) was 0.309. It also gave a relative viability ([9]; first compound 0.002 µM) of 0.453, a relative viability ([9]; first compound 0.006325 µM) of 0.476 and a relative viability ([9]; first compound 0.02 µM) of 0.394. The relative viability ([9]; first compound 0.06325 µM) was 0.353, the relative viability ([9]; first compound 0.2 µM) was 0.341 and the relative viability ([10]; first compound 0.002 µM) was 0.552. The relative viability ([10]; first compound 0.006325 µM) was 0.419, the relative viability ([10]; first compound 0.02 µM) was 0.314 and the relative viability ([10]; first compound 0.06325 µM) was 0.117. The relative viability ([10]; first compound 0.2 µM) was 0.106, the relative viability ([11]; first compound 0.002 µM) was 0.737 and the relative viability ([11]; first compound 0.006325 µM) was 0.619. For the same compound, the relative viability ([11]; first compound 0.02 µM) was 0.722, the relative viability ([11]; first compound 0.06325 µM) was 0.361 and the relative viability ([11]; first compound 0.2 µM) was 0.242. The relative viability ([12]; first compound 0.002 µM) was 0.311, the relative viability ([12]; first compound 0.006325 µM) was 0.299 and the relative viability ([12]; first compound 0.02 µM) was 0.234. It also gave a relative viability ([12]; first compound 0.06325 µM) of 0.236, a relative viability ([12]; first compound 0.2 µM) of 0.0739 and a relative viability ([13]; first compound 0.002 µM) of 0.382. The relative viability ([13]; first compound 0.006325 µM) was 0.347, the relative viability ([13]; first compound 0.02 µM) was 0.14 and the relative viability ([13]; first compound 0.06325 µM) was 0.093. The relative viability ([13]; first compound 0.2 µM) was 0.0892, the relative viability ([14]; first compound 0.002 µM) was 0.589 and the relative viability ([14]; first compound 0.006325 µM) was 0.525. It also gave a relative viability ([14]; first compound 0.02 µM) of 0.198, a relative viability ([14]; first compound 0.06325 µM) of 0.0548 and a relative viability ([14]; first compound 0.2 µM) of 0.0529. It also gave a relative viability ([15]; first compound 0.002 µM) of 0.351, a relative viability ([15]; first compound 0.006325 µM) of 0.33 and a relative viability ([15]; first compound 0.02 µM) of 0.287. It also gave a relative viability ([15]; first compound 0.06325 µM) of 0.259, a relative viability ([15]; first compound 0.2 µM) of 0.311 and a relative viability ([16]; first compound 0.002 µM) of 0.299. It also gave a relative viability ([16]; first compound 0.006325 µM) of 0.245, a relative viability ([16]; first compound 0.02 µM) of 0.291 and a relative viability ([16]; first compound 0.06325 µM) of 0.256. For the same compound, the relative viability ([16]; first compound 0.2 µM) was 0.198, the relative viability ([17]; first compound 0.002 µM) was 0.226 and the relative viability ([17]; first compound 0.006325 µM) was 0.182. The relative viability ([17]; first compound 0.02 µM) was 0.178, the relative viability ([17]; first compound 0.06325 µM) was 0.164 and the relative viability ([17]; first compound 0.2 µM) was 0.138. For the same compound, the relative viability ([18]; first compound 0.002 µM) was 0.17, the relative viability ([18]; first compound 0.006325 µM) was 0.209 and the relative viability ([18]; first compound 0.02 µM) was 0.198. The relative viability ([18]; first compound 0.06325 µM) was 0.151, the relative viability ([18]; first compound 0.2 µM) was 0.173 and the relative viability ([19]; first compound 0.002 µM) was 0.301. For the same compound, the relative viability ([19]; first compound 0.006325 µM) was 0.281, the relative viability ([19]; first compound 0.02 µM) was 0.233 and the relative viability ([19]; first compound 0.06325 µM) was 0.189. The relative viability ([19]; first compound 0.2 µM) was 0.203, the relative viability ([20]; first compound 0.002 µM) was 0.506 and the relative viability ([20]; first compound 0.006325 µM) was 0.532. It also gave a relative viability ([20]; first compound 0.02 µM) of 0.13, a relative viability ([20]; first compound 0.06325 µM) of 0.0551 and a relative viability ([20]; first compound 0.2 µM) of 0.0703. For the same compound, the relative viability ([21]; first compound 0.002 µM) was 0.741, the relative viability ([21]; first compound 0.006325 µM) was 0.722 and the relative viability ([21]; first compound 0.02 µM) was 0.227. For the same compound, the relative viability ([21]; first compound 0.06325 µM) was 0.0874, the relative viability ([21]; first compound 0.2 µM) was 0.109 and the relative viability ([22]; first compound 0.002 µM) was 0.474. It also gave a relative viability ([22]; first compound 0.006325 µM) of 0.488, a relative viability ([22]; first compound 0.02 µM) of 0.309 and a relative viability ([22]; first compound 0.06325 µM) of 0.214. It also gave a relative viability ([22]; first compound 0.2 µM) of 0.153.
